{
  "source": "patent US7098195B2",
  "about": "“Fluorinated glucosamine analogs useful for modulating post-translational glycosylations on cells” (Health Research, Inc., priority 2001, dated 2006)",
  "key": {"[1]": {"test_system": "HECA-452 epitopes on PSGL-1", "test": "Western blot of HECA-452 epitopes on PSGL-1 of CLA+ T-cells", "format": "cell-based, human", "description": "For analysis of CLA expression on T-cells treated with glycoconjugate modifiers, CLA^+ T-cells were first pretreated with neuraminidase (0.1 U/ml at 37° C. for 1 h) to eliminate functional CLA and cleave all HECA-452 reactive epitopes from the cell surface (35–38). Since we wanted to investigate whether these compounds directly affected CLA expression and function, neuraminidase pretreatment followed by incubations with glycosylation modifiers allowed for examination of de novo synthesized CLA/HECA-452 epitopes re-expressed on the cell surface. After neuraminidase digestion, cells were then incubated with tunicamycin (0.02 mM) (an inhibitor of GlcNAc phosphotransferase, the initial step of N-glycosylation), swainsonine (0.23 mM) (an inhibitor of α-mannosidase II and complex-type N-glycosylation), 4-F-GlcNAc (0.05 mM) (putative inhibitor of poly-N-acetyllactosamine biosynthesis), BAG (an inhibitor of O-glycan biosynthesis) (<2 mM) or GlcNAc (5 mM) (negative control, naturally-occurring metabolic counterpart of 4-F-GlcNAc)for 30 h in the presence of human recombinant IL-2. […] Concentrations for BAG were selected based on maximal O-glycosylation inhibitory effects at non-growth inhibitory concentrations as previously reported (39). To determine a suitable concentration of 4-F-GlcNAc for examining glycoconjugate-modifying effects without influencing cell growth or protein synthesis, we performed preliminary growth inhibitory experiments of cells incubated with 4-F-GlcNAc for 2 cell doublings (˜36 h) at 37° C. (cell viability assessed by Trypan-blue exclusion).\nFor lysate preparation, cells (including radiolabeled cells) were washed 3× in ice cold PBS and lysed in buffer containing 150 mM NaCl, 50 mM Tris-HCl pH 7.4, 1 mM EDTA, 0.02% NaAzide, 20 μg/ml PMSF, Complete™ protease inhibitors cocktail tablets (Roche Molecular Biochemicals) and 2% NP-40 (250 μl/10^8 cells). Following 2 h incubation on ice, insoluble cellular debris was pelleted by centrifugation for 30 min at 10,000×g at 4° C. and solubilized protein lysate was collected and quantified by Bradford protein assay (Sigma Chemical). SDS was added to a final concentration of 1% in lysate preparations utilized for immunoprecipitation experiments.\nFor SDS-PAGE and Western blotting, cell lysates, membrane proteins or immunoprecipitates were diluted and boiled in reducing sample buffer, and separated on 7–9% SDS-PAGE gels. Resolved protein was transferred to Sequi-blot™ PVDF membrane (Bio-Rad, Inc., Hercules, Calif.) and blocked with FBS for 1 hr at RT. Blots were incubated with rat IgM anti-human CLA HECA-452 (1 μg/ml), mouse IgG anti-human PSGL-1 moAbs PL-2 (1 μg/ml), 203, 4F9 and 4D8 (1 μg each/ml), or mouse IgG anti-human CD43 L60 (1 μg/ml) for 1 hr at RT. Isotype control immunoblots using either rat IgM or mouse IgG were performed in parallel to evaluate non-specific reactive proteins. After three washes with PBS/0.1%Tween-20 (10 min/wash), blots were incubated with the respective secondary Ab, AP-conjugated goat anti-rat IgM (1:400) or goat anti-mouse IgG (1:8000). AP substrate, Western Blue® (Promega, Madison, Wis.) was then added to develop blots.\nCells were then re-cultured in the presence of glycosylation inhibitor, diluent control (PBS) or molecular control (GlcNAc) for 30 hr and then harvested for CLA expression and functional analysis. […] To assess the duration of anti-carbohydrate effects on HECA-452 expression on PSGL-1, cells treated with 4-F-GlcNAc for 30 h and were then re-cultured in non-4-F-GlcNAc-containing medium for 72 h."}, "[2]": {"test_system": "HCELL/CD44 activity on human hematopoietic KG1a cells", "test": "Stamper-Woodruff adhesion assay, L-selectin-dependent lymphocyte adherence to KG1a cells", "format": "cell-based", "conditions": "for relative potency as inhibitor of HCELL activity: 4-F-GlcNAc vs swainsonine, tunicamycin vs both", "excerpt": "To study the effects of 4-F-GlcNAc on the function of the L-selectin binding activity of CD44 (HCELL), we employed the shear-based, Stamper-Woodruff adhesion assay to examine the ability of 4-F-GlcNAc-treated KG1a cells to support L-selectin-dependent lymphocyte adherence. This assay is utilized to specifically assess the shear-dependent binding interactions between L-selectin naturally expressed on lymphocytes and HCELL expressed on KG1a cells (Dimitroff, C. J. et al. (2000) Proc. Nat. Acad. Sci., 97(25):13841–46; Sackstein, R. and Dimitroff, C. J. (2000) Blood, 96: 2765–74.). Before treating KG1a cells with 0.05, 0.1 or 0.5 mM 4-F-GlcNAc, we first pretreated KG1a cells with Vibrio cholerae neuraminidase (0.1 U/ml for 1 hr at 37° C.) to cleave all terminal α2,3 sialic acid-bearing residues and eliminate all HCELL activity. Glutaraldehyde-fixed monolayers of KG1a cells that were first treated with Vibrio cholerae neuraminidase (0.1 U/ml for 1 hr at 37° C.) then re-cultured in the presence of 4-F-GlcNAc (0.05–0.5 mM) for 30 hr at 37° C. Metabolic inhibitors swainsonine, an inhibitor of α-mannosidase II, tunicamycin, an inhibitor of N-acetylglucosamine phosphototransferase, were also utilized to compare the relative potencies of known glycosylation inhibitors. Human peripheral blood lymphocytes (5×10^6cells/ml RPMI1640 w/o NaBicarbonate/5%FBS) were overlayed onto KG1a monolayers at 80 rpm for 30 min. at 4° C., and after gently washing in PBS, lymphocytes bound to cell monolayers were fixed in 3% glutaraldehyde. Re-expression of HCELL activity or HECA-452-reactive CD44 on KG1a cells was determined after […] of 4-F-GlcNAc treatment. Bound lymphocytes were quantified at 100× magnification from a minimum of 5 fields from 2 slides, and the mean number of lymphocytes (standard error of the mean) was calculated."}, "[3]": {"conditions": "30 h after neuraminidase, tunicamycin 0.02 mM, swainsonine 0.23 mM, 4-F-GlcNAc 0.05 mM, BAG 2.0 mM, GlcNAc 5.0 mM"}},
  "note": "Where two headings read alike, the source gives them in different places.",
  "data": [
    {"compound": "CC(=O)N[C@H]1C(O)O[C@H](CO)[C@@H](O)[C@@H]1O", "note": "(stereo partly drawn) [GlcNAc, N-acetylglucosamine]", "values": [
      {"measurement": "de novo synthesized HECA-452 epitopes on PSGL-1 (Western blot)", "setting": "[1]; [3]", "value": "not affected"}
    ]},
    {"compound": "O[C@H]1[C@H]2[C@H](O)CCCN2C[C@H]1O", "note": "[swainsonine]", "values": [
      {"measurement": "inhibition at 230 µM", "setting": "[2]; Homo sapiens, KG-1a, KG1a neuraminidase then recovery in 0.23 mM, read-out: % Inhibition (lymphocyte binding)", "value": 74, "unit": "%"},
      {"measurement": "Mean Lymphocyte Binding", "setting": "[2]; KG1a neuraminidase then recovery in 0.23 mM", "value": 60.7},
      {"measurement": "de novo synthesized HECA-452 epitopes on PSGL-1 (Western blot)", "setting": "[1]", "value": "not affected"}
    ]},
    {"compound": "CC(=O)N[C@H]1C(OC(C)=O)O[C@H](COC(C)=O)[C@@H](F)[C@@H]1OC(C)=O", "note": "(stereo partly drawn) [4-F-GlcNAc, 2-acetamido-2-deoxy-1,3,6-tri-O-acetyl-4-deoxy-4-fluoro-D-glucopyranose]", "values": [
      {"measurement": "relative potency as inhibitor of HCELL activity", "setting": "[2]", "value": "more potent inhibitor of HCELL activity"},
      {"measurement": "inhibition at 50 µM", "setting": "[2]; Homo sapiens, KG-1a, KG1a neuraminidase then recovery in 0.05 mM, read-out: % Inhibition (lymphocyte binding)", "value": 60, "unit": "%"},
      {"measurement": "inhibition at 100 µM", "setting": "[2]; Homo sapiens, KG-1a, KG1a neuraminidase then recovery in 0.1 mM, read-out: % Inhibition (lymphocyte binding)", "value": 78, "unit": "%"},
      {"measurement": "inhibition at 500 µM", "setting": "[2]; Homo sapiens, KG-1a, KG1a neuraminidase then recovery in 0.5 mM, read-out: % Inhibition (lymphocyte binding)", "value": 94, "unit": "%"},
      {"measurement": "Mean Lymphocyte Binding", "setting": "[2]; KG1a neuraminidase then recovery in 0.05 mM", "value": 93.6},
      {"measurement": "Mean Lymphocyte Binding", "setting": "[2]; KG1a neuraminidase then recovery in 0.1 mM", "value": 50.6},
      {"measurement": "Mean Lymphocyte Binding", "setting": "[2]; KG1a neuraminidase then recovery in 0.5 mM", "value": 15.4},
      {"measurement": "potency at lowering HECA-452 expression relative to BAG, on a molar basis", "setting": "[1]", "value": "more potent than BAG"},
      {"measurement": "de novo synthesized HECA-452 epitopes on PSGL-1 (Western blot)", "setting": "[1]; [3]", "value": "marked reduction"},
      {"measurement": "duration of suppression of HECA-452 expression on PSGL-1 after removal of drug", "setting": "[1]; treated for 30 h then re-cultured in non-4-F-GlcNAc-containing medium for 72 h", "value": 48, "unit": "h"}
    ]},
    {"compound": "tunicamycin", "values": [
      {"measurement": "relative potency as inhibitor of HCELL activity", "setting": "[2]", "value": "more potent inhibitor of HCELL activity than both swainsonine and 4-F-GlcNAc"},
      {"measurement": "de novo synthesized HECA-452 epitopes on PSGL-1 (Western blot)", "setting": "[1]", "value": "marked reduction"},
      {"measurement": "potency at lowering HECA-452 expression relative to 4-F-GlcNAc, on a molar basis", "setting": "[1]", "value": 2.5, "unit": "fold"},
      {"measurement": "effects on HECA-452 expression", "setting": "[1]; below 0.015 mM, preliminary, data not shown", "value": "minimal effects"}
    ]}
  ]
}
